Experimental data reported in patent US6300499A, “α1-adrenergic receptor antagonists” (Societe de Conseils de Recherches et d'Applications …, priority 1998, dated 2001).
pKi: −log10 of the molar value.

Tests used:
α1-adrenergic receptor = assay: Test of the bond to the α1-adrenergic receptor (inhibition of [3H]prazosin bond to rat cerebral cortex); format: binding, rat (male Sprague Dawley); conditions: [3H]prazosin 0.2 nM, rat cerebral cortex membranes, 30 min, 25° C., pH 7.7
Method: The cerebral cortices of male Sprague Dawley rats are homogenized at 4° C. in Tris-HCl 50 mM pH=7.7 and centrifuged at 50,000 g for 30 minutes at 4° C. The pellets are again suspended in the same buffer and centrifuged again at 50,000 g for 30 minutes at 4° C.
The filters are rinsed three times with the same buffer at 0-4° C. and their radioactivity is tested by liquid scintillation spectrometry.
The specific bonds are obtained by subtracting the non-specific bonds (determined in the presence of 10 μM of phentolamine (Sigma Chemical Co. St. Louis Mo.)) from the total bonds. The data relative to the bonds is analyzed by computer assisted iterative non-linear regression analysis, using the Ligand program (Munson, P. J., Rodbard, D. Anal. Biochem. 107:220 (1980)).

prostatic urethrae = assay: Urethra Contraction Test (inhibition of phenylephrine contraction of prostatic urethra); design: species or system rabbit (male New Zealand); conditions: inhibition of contraction of rabbit prostatic urethra, agonist phenylephrine, compound 30 min before
Method: The urethrae are removed from male New Zealand rabibits, and cleaned of the surrounding connective tissues. Bands of prostatic urethrae (3 mm wide, 10-15 mm long) are suspended (1 g tension) in organ baths containing 10 ml of physiological solution (pH 7.4) at 37° C. under an atmosphere of 95% O2 /5% CO2; NaCl (118 mM); KCl (4.7 mM); CaCl2 (2.5 mM); KH2 PO4 (1.2 mM); MgSO4 (1.2 mM); NaHCO3 (25 mM); glucose (11 mM). The contractile responses are measured using force displacement transducers coupled to a Gould 8000S polygraph. A one hour period of equilibration or equalization is provided before the experiment. After equalization, the preparations are sensitized by a submaximal concentration of phenylephrine. Forty five minutes after the sensitization, a concentration-effect curve for the phenylephrine is established. In order to determine the effect of the test compounds, different preparations originating from the same animal are used in parallel. One preparation serves as a control whilst the others receive a concentration of a test compound introduced into the bath 30 minutes before the phenylephrine (Auguet, M. et al. European J. Pharmacol. 217:153 (1995)).
The dissociation constants (Kb) of the test compounds are determined using the following equation: Kb =[B]/(dose ratio--1); in which [B] is the concentration of test compound and (dose ratio) is the EC50 of phenylephrine in the presence of the test compound divided by the EC50 of the control preparation. These resultats are then expressed as the negative logarithm of Kb. The values of the EC50 are calculated from the maximum contractile response to the phenylephrine by computer analysis using a linear regression over the average tension values. The maximum contractile response of each preparation which was subjected to the test compound is determined by comparing the response provoked by the application of the sensitizing concentration of phenylephrine with the response provoked in the control preparation (which has not received the test compounds).

aorta of the rat = assay: Test of the contraction of the aorta of the rat (phenylephrine); design: species or system rat (male Sprague Dawley); conditions: agonist phenylephrine, compound 60 min before
Method: (§1) The aorta and the portal vein are extracted from male Sprague Dawley rats (275-350 g, Charles River, France) after cervical dislocation and cleaned of the surrounding connective tissues. […] The contractile responses are measured using force displacement transducers either coupled to a Gould […] polygraph or connected to a data retrieval system ([…], France). A one hour period of equilibration or equalization is provided before the experiment. […] Seventy five minutes, after the sensitization, a concentration-effect curve for the phenylephrine is established. In order to determine the effect of the test compounds, different preparations are used in parallel. One preparation serves as a control whilst the others receive different test compounds introduced into the bath 60 minutes before the aministration of the phenylephrine. The results are expressed as averages ±S.E.M. or percentage of contraction. […] The EC50 values are calculated from the maximum contractile response by computer analysis using a linear regression over the average tension values.

portal vein of the rat = assay: Test of the contraction of the portal vein of the rat (phenylephrine); design: species or system rat (male Sprague Dawley)
Method: as §1

aorta of the rabbit = assay: Test of the contraction of the aorta of the rabbit (phenylephrine); design: species or system rabbit (male New Zealand); conditions: agonist phenylephrine, compound 60 min before
Method: (§2) The aorta and the portal vein are extracted from male New-Zealand rabbits (2.5-3.5 kg, Dombes Romans, France) after cervical dislocation and cleaned of the surrounding connective tissues. […] The contractile responses are measured using force displacement transducers coupled to a Gould RS3400 polygraph. A one hour period of equilibration or equalization is provided before the experiment. […] When the contraction provoked by the phenylephrine is stabilized, carbachol (10 μM) is administered with the aim of controlling the disorganisation of the endothelium in the vessels. Seventy five minutes after the sensitization, a concentration-effect curve for the phenylephrine is established. In order to determine the effect of the test compounds, different preparations are used in parallel. One preparation serves as a control whilst the others receive different concentrations of test compounds introduced into the bath 60 minutes before the phenylephrine. The results are expressed as averages ±S.E.M. or percentage of contraction. […] The EC50 values are calculated from the maximum contractile response by computer analysis using a linear regression over the average tension values.

[1] = tested on: portal vein of the rabbit; assay: Test of the contraction of the portal vein of the rabbit (phenylephrine); design: species or system rabbit (male New Zealand)
Method: as §2

[2] = tested on: saphenous vein of the rabbit; assay: Test of the contraction of the saphenous vein of the rabbit (phenylephrine); design: species or system rabbit (male New Zealand)
Method: The contractile responses are measured using force displacement transducers coupled to a Gould RS3400 polygraph. […] A one hour period of equilibration or equalization is provided before the experiment. During this equalization period, the tension of the venous rings is left to relax and the final tension is maintained at 0.5 g. After equalization, the preparations are sensitized by a submaximal concentration (3 μM) of phenylephrine. When the contraction triggered by the phenylephrine is stabilized, carbachol (10 μM) is administered in order to control the disorganisation of the endothelium in the vessels. Seventy five minutes after the sensitization, a concentration-effect curve for the phenylephrine is established. In order to determine the effect of the test compounds, different preparations are used in parallel. One preparation serves as a control whilst the others receive different test compounds introduced into the bath 60 minutes before the administration of the phenylephrine The results are expressed as averages ±S.E.M. or percentage of contraction. […] The EC50 values are calculated from the maximum contractile response by computer analysis using a linear regression over the average tension values.

## Cc1ccc(C)c(N2CCN(CCCNC(=O)[C@@](C)(O)c3ccccc3)CC2)c1 [Compound 45, S-(+)-N-[3-{4-(2,5-dimethylphenyl)-1-piperazinyl}-propyl]-α-hydroxy-α-methyl-benzeneacetamide]
α1-adrenergic receptor
  pKi: 7.89
Prostatic urethrae
  -log Kb: 8.3
Aorta of the rat
  Kb: 45 nM
Portal vein of the rat; rat portal vein, agonist phenylephrine, compound 60 min before
  Kb: 1.4 nM
Portal vein of the rat; rat, aorta / portal vein
  Selectivity Kb (Aorta)/Kb (Vein): 32
Aorta of the rabbit
  Kb: 63 nM
[1]; rabbit portal vein, agonist phenylephrine, compound 60 min before
  Kb: 1.6 nM
[1]; rabbit, aorta / portal vein
  Selectivity Kb (Aorta)/Kb (Vein): 40
[2]; rabbit saphenous vein, agonist phenylephrine, compound 60 min before
  Kb: 15 nM
[2]; rabbit, saphenous vein / portal vein
  Selectivity Kb (Salphenous vein)/Kb (Portal vein): 8.4
